{"source": "ChEMBL document CHEMBL5465560", "about": "“Selectivity Literature for EUbOPEN Chemogenomic Library” (2024)", "key": {"[1]": {"molecular_target": "Glutamate receptor 1 (Homo sapiens) (UniProt P42261)", "sequence (P42261 whole entry)": "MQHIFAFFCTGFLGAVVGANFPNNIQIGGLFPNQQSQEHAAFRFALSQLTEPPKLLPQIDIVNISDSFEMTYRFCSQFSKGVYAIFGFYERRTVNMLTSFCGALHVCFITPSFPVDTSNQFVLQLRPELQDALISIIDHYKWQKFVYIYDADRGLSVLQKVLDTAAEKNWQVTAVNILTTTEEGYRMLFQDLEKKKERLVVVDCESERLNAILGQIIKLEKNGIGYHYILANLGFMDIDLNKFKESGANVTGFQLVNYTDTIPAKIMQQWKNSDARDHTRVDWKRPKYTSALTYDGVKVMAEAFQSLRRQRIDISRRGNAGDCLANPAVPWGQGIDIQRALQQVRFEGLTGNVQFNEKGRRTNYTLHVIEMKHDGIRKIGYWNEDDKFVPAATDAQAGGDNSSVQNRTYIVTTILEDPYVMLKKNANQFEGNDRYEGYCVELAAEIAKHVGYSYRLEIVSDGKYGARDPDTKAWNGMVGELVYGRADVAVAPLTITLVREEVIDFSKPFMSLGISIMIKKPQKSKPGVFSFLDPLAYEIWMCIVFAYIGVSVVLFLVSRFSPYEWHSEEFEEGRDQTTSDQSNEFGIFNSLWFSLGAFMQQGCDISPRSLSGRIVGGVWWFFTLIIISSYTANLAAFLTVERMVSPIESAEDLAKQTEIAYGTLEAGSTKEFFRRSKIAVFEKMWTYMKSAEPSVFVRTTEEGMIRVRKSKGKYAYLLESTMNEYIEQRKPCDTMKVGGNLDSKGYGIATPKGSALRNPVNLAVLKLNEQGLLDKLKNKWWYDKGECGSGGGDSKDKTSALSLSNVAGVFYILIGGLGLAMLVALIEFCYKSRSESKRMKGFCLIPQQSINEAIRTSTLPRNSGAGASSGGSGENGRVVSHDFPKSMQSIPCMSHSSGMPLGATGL", "test": "Selectivity interaction (Eurofins CEREP Diversity Profile (receptors and ion channels)) EUB0000279b GRIA1", "conditions": "at 10 µM"}, "[2]": {"molecular_target": "Tyrosine-protein kinase ABL1 (Homo sapiens, UniProt P00519)", "sequence (P00519 whole entry)": "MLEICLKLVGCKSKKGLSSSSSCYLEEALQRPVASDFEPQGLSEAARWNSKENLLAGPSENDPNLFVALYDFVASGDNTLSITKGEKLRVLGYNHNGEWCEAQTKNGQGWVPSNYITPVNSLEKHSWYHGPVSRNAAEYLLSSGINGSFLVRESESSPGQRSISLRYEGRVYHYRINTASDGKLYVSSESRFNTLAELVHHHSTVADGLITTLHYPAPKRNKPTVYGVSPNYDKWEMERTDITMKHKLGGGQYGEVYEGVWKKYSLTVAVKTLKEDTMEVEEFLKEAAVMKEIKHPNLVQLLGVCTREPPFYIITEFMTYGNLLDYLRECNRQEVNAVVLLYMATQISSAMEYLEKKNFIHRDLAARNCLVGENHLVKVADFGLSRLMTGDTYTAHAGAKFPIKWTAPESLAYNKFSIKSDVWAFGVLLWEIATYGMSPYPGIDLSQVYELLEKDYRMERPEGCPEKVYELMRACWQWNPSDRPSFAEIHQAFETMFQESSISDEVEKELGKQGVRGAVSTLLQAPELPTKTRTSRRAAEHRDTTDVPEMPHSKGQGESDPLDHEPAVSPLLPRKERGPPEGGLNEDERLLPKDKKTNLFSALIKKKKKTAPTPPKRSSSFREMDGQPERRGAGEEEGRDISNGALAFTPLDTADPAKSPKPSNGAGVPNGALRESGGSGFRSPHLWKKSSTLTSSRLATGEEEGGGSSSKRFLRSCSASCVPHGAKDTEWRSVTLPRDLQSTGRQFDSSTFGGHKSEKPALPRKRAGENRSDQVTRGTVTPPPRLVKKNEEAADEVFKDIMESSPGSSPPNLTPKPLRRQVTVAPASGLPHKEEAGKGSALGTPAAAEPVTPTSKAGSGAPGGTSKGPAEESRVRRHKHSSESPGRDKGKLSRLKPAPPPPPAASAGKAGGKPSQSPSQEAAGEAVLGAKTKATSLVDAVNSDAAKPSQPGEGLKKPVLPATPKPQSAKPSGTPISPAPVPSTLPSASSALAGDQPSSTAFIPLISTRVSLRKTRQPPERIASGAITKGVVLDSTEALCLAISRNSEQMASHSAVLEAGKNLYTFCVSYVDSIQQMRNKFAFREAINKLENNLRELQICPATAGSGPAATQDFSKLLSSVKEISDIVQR", "test": "Selectivity interaction (Ambit KINOMEscan and KiNATiv profiling in Jurkat cells) EUB0000090b ABL1", "format": "cell-based", "conditions": "at 1 µM"}, "[3]": {"molecular_target": "Tyrosine-protein kinase Fyn (Homo sapiens) (UniProt P06241)", "sequence (P06241 2-537 limits assumed)": "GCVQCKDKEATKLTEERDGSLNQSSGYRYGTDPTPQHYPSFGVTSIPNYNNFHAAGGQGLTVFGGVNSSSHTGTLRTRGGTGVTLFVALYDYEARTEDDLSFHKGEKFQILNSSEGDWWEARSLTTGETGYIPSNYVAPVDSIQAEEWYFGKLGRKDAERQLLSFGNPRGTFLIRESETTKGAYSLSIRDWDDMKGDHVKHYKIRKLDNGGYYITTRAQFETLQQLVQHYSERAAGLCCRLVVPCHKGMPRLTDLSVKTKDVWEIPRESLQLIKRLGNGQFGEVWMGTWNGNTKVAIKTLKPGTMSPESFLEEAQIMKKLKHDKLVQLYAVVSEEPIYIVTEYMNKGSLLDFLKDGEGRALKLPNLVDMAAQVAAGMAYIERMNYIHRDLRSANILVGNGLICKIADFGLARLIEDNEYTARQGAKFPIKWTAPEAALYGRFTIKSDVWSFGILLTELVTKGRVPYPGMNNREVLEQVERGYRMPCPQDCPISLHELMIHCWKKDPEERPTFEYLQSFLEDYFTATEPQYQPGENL", "test": "Selectivity interaction (KinomeScan (DiscoverX)) EUB0000655a FYN", "conditions": "at 10 µM"}, "[4]": {"molecular_target": "Sigma intracellular receptor 2 (Homo sapiens) (UniProt Q5BJF2)", "sequence (Q5BJF2 whole entry)": "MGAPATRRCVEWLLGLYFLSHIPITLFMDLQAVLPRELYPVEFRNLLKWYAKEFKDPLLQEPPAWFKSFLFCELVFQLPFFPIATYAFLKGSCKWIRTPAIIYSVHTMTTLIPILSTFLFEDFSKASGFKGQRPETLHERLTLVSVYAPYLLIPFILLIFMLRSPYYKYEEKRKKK", "test": "Selectivity interaction (GPCR panel (PDSP screen)) EUB0001079a TMEM97", "conditions": "at 10 µM"}, "[5]": {"molecular_target": "G protein-coupled receptor kinase 5 (Homo sapiens, UniProt P34947)", "test": "Selectivity interaction (SelectScreen profiling (Invitrogen)) EUB0000607a GRK5", "conditions": "at 2 µM"}, "[6]": {"molecular_target": "Mitogen-activated protein kinase 7 (Homo sapiens) (UniProt Q13164)", "sequence (Q13164 2-816 limits assumed)": "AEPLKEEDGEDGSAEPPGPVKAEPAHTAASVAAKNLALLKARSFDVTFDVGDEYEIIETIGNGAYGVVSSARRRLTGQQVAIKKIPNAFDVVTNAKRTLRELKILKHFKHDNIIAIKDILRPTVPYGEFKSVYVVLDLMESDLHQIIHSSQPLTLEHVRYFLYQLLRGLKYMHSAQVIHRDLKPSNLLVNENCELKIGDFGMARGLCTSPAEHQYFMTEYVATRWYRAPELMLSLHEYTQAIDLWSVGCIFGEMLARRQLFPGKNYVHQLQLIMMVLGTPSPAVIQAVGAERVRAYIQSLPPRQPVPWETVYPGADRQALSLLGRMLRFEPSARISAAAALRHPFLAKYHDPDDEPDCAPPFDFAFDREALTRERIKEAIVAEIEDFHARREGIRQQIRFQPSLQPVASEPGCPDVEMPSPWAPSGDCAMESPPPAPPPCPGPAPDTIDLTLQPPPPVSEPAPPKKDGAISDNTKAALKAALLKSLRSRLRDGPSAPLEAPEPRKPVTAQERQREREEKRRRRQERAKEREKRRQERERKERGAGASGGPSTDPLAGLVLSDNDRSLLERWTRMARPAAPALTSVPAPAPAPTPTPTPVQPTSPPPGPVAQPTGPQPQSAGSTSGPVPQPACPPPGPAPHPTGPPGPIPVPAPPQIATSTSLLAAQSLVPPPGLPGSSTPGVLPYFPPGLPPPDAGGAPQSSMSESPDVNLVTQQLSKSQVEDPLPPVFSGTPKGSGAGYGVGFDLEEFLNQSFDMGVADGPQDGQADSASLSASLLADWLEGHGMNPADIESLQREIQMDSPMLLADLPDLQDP", "test": "Selectivity interaction (ActivX KiNativ screen (ex vivo kinase selectivity in human PBMCs)) EUB0001619a MAPK7", "format": "cell-based", "conditions": "PBMC, at 1 µM"}, "[7]": {"test_system": "Tyrosine-protein kinase ABL1 (Homo sapiens), P00519 [F317L]", "sequence (P00519 whole entry F317L)": "as the sequence (P00519 whole entry) above, with F317L counted along it", "test": "Selectivity interaction (KinomeScan (DiscoverX)) EUB0000045b ABL1", "conditions": "at 10 µM"}, "[8]": {"molecular_target": "T1, Serine/threonine-protein kinase 17A (Homo sapiens) (UniProt Q9UEE5)", "T1 sequence (whole entry)": "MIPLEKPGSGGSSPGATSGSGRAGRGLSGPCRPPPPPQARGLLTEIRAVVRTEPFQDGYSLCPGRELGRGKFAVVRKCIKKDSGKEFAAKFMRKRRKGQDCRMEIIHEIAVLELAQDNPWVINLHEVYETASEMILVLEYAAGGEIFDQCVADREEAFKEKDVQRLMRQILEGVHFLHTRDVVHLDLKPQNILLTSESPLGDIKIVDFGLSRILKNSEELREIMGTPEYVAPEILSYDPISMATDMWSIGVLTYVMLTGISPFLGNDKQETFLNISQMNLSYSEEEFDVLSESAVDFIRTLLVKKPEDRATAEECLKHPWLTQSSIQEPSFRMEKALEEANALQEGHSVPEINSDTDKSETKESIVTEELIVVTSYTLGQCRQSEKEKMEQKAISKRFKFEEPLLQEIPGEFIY", "test": "Selectivity interaction (Upstate Kinase Profiler service (Millipore)) EUB0000056c STK17A", "conditions": "at 1 µM"}, "[9]": {"molecular_target": "Calcium/calmodulin-dependent protein kinase type 1 (Homo sapiens) (UniProt Q14012)", "sequence (Q14012 whole entry, looked up)": "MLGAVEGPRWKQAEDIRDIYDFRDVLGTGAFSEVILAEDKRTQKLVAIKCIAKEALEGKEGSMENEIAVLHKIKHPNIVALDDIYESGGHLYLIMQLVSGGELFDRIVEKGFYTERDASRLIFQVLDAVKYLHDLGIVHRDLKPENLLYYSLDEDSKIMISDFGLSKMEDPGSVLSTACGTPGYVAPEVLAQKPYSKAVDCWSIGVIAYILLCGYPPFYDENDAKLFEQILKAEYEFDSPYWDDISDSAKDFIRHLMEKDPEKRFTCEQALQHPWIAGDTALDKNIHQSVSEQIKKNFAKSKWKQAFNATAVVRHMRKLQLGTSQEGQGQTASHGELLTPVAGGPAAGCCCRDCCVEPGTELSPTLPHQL", "test": "Selectivity interaction (ActivX KiNativ screen (kinase selectivity in THP-1 cell lysates)) EUB0000639a CAMK1", "format": "subcellular", "conditions": "lysate, at 0.04 µM"}, "[10]": {"molecular_target": "Calcium/calmodulin-dependent protein kinase kinase 1 (Homo sapiens) (UniProt Q8N5S9)", "test": "Selectivity interaction (Kinase panel (Invitrogen)) EUB0000639a CAMKK1", "conditions": "at 200 nM"}, "[11]": {"molecular_target": "Mitogen-activated protein kinase 9 (Homo sapiens, UniProt P45984)", "test": "Selectivity interaction (Kinase panel (Invitrogen)) EUB0000639a MAPK9", "conditions": "at 200 nM"}, "[12]": {"molecular_target": "Serine/threonine-protein kinase Nek7 (Homo sapiens) (UniProt Q8TDX7)", "sequence (Q8TDX7 whole entry, looked up)": "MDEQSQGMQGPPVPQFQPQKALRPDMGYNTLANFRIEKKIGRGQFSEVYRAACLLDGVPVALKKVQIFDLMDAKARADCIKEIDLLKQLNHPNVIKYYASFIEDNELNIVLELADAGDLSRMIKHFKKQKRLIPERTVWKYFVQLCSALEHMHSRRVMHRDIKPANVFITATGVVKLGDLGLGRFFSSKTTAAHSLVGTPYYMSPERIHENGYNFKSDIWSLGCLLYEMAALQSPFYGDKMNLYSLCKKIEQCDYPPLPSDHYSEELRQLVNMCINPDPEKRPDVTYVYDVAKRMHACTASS", "test": "Selectivity interaction (Kinase panel (Invitrogen)) EUB0000639a NEK7", "conditions": "at 200 nM"}, "[13]": {"molecular_target": "T2, Serine/threonine-protein kinase TAO1 (Homo sapiens) (UniProt Q7L7X3)", "T2 sequence (whole entry)": "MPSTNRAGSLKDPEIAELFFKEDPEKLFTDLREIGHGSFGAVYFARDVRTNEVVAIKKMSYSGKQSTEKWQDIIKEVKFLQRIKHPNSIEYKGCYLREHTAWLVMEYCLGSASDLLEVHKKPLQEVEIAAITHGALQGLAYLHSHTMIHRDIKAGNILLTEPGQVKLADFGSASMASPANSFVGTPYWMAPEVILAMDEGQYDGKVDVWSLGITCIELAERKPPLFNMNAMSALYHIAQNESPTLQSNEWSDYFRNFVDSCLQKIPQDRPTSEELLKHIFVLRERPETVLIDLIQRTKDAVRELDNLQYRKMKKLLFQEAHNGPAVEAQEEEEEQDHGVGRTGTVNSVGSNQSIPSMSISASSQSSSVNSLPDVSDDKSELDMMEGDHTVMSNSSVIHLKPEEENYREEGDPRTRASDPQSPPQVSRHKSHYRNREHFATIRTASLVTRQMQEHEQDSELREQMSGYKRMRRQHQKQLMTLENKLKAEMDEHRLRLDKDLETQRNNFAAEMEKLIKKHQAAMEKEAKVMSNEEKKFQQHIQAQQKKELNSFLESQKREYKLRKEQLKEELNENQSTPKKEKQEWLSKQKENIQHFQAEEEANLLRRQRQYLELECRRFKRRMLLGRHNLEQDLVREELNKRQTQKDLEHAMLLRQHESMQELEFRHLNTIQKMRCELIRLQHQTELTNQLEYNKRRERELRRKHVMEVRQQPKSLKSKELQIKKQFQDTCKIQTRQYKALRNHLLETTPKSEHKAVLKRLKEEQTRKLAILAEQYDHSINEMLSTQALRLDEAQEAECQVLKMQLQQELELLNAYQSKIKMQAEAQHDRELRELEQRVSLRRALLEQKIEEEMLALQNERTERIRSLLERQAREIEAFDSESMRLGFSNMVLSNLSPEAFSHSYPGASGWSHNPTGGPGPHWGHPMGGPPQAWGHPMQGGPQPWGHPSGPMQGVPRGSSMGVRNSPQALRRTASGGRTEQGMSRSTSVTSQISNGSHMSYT", "test": "Selectivity interaction (KinomeScan (DiscoverX)) EUB0001049a TAOK1", "conditions": "at 1 µM"}, "[14]": {"molecular_target": "MAP kinase-interacting serine/threonine-protein kinase 2 (Homo sapiens, UniProt Q9HBH9)", "sequence (Q9HBH9 whole entry)": "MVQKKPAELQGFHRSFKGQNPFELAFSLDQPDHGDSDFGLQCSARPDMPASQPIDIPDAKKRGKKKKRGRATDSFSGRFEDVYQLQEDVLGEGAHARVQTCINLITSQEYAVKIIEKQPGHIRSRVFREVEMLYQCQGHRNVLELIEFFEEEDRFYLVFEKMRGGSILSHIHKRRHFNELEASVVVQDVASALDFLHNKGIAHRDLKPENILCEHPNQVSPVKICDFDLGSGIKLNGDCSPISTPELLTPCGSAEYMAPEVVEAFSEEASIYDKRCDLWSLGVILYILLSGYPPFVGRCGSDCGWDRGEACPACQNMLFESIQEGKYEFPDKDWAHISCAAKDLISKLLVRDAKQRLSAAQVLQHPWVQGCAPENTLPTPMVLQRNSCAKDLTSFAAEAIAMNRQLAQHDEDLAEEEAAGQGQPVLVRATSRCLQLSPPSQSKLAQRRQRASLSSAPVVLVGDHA", "test": "Selectivity interaction (Kinase panel (33PanQinase(R) Activity Assay)) EUB0000877a MKNK2"}, "[15]": {"molecular_target": "T3, Cyclin-dependent kinase-like 2 (Homo sapiens) (UniProt Q92772)", "T3 sequence (whole entry)": "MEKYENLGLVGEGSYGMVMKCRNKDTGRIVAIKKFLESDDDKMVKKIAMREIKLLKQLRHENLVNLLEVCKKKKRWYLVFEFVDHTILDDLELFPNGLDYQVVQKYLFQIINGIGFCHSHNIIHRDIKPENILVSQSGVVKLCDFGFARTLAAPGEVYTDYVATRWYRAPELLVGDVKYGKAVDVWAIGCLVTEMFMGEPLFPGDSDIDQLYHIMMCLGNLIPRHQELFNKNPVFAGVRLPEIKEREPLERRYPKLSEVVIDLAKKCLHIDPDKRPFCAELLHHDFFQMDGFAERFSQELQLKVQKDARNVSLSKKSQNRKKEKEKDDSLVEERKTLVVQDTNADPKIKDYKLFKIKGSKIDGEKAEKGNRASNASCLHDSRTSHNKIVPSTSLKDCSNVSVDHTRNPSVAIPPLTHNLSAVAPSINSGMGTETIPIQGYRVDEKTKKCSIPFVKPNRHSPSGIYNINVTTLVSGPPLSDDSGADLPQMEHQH", "test": "Selectivity interaction (KinomeScan (DiscoverX)) EUB0000092b CDKL2", "conditions": "at 10 µM"}}, "data": [{"smiles": "CC(=O)c1cc(-c2ccccc2OCC2CC2)c2ncccn12", "values": [{"measurement": "% of control", "setting": "[1]", "result": 93, "unit": "%"}]}, {"smiles": "CN(C)C/C=C/C(=O)Nc1ccc(C(=O)N2CCCC(Nc3ncc(Cl)c(-c4c[nH]c5ccccc45)n3)C2)cc1", "note": "(stereo not given)", "values": [{"measurement": "% of control", "setting": "[2]", "result": 97, "unit": "%"}]}, {"smiles": "CN(C)CCOc1ccc(-c2nc(-c3ccncc3)c(-c3ccc4c(c3)CC/C4=N\\O)[nH]2)cc1", "values": [{"measurement": "% of control", "setting": "[3]", "result": 79, "unit": "%"}]}, {"smiles": "Nc1cnc(N2CCc3cc(S(=O)(=O)Nc4c(F)cc(Cl)cc4F)cc(N4CCCC4=O)c32)nc1", "note": "[TP-020n]", "values": [{"measurement": "% of inhibition", "setting": "[4]", "result": -12, "unit": "%"}]}, {"smiles": "CNC(=O)Nc1ccc(-c2nc(N3CC4CCC(C3)O4)c3cnn(C4CCC5(CC4)OCCO5)c3n2)cc1", "values": [{"measurement": "% of inhibition", "setting": "[5]", "result": -4, "unit": "%"}]}, {"smiles": "N#Cc1cccc(-c2c[nH]c3ncnc(N4CCOCC4)c23)c1", "values": [{"measurement": "% of inhibition", "setting": "[6]", "result": -6, "unit": "%"}]}, {"smiles": "C=CC(=O)Nc1cc(-n2c(=O)ccc3cnc4ccc(-c5ccc(NS(C)(=O)=O)cc5)cc4c32)ccc1C", "values": [{"measurement": "% of control", "setting": "[7]", "result": 75, "unit": "%"}]}, {"smiles": "Cc1ccc(-c2ccc3c(ccc4sc5c(c43)NC[C@@H](C)NC5=O)n2)cn1", "values": [{"measurement": "% of inhibition", "setting": "[8]", "result": 88, "unit": "%"}]}, {"smiles": "CC[C@@H]1[C@H](F)C(=O)N[C@@H]1COc1nccc2cc(C(N)=O)c(OC)cc12", "note": "[ZIMLOVISERTIB]", "values": [{"measurement": "% of inhibition", "setting": "[9]", "result": -6.2, "unit": "%"}, {"measurement": "% of inhibition", "setting": "[10]", "result": 2.23, "unit": "%"}, {"measurement": "% of inhibition", "setting": "[11]", "result": 2.83, "unit": "%"}, {"measurement": "% of inhibition", "setting": "[12]", "result": -1.03, "unit": "%"}]}, {"smiles": "COc1cc(Nc2nc(C)cc(-c3cnn4nc(OC)ccc34)n2)cc(C(F)(F)F)c1", "values": [{"measurement": "% of control", "setting": "[13]", "result": 96, "unit": "%"}]}, {"smiles": "CCC(=O)N1CC[C@H](Nc2ncnc3c2CN(c2cnc(OC)c(C(F)(F)F)c2)CC3)C1", "note": "[LENIOLISIB]", "values": [{"measurement": "IC50", "setting": "[14]", "result": "> 10", "unit": "µM"}]}, {"smiles": "CCC(=O)N1CCN(c2ccc(-n3c(=O)ccc4cnc5ccc(-c6cnc7ccccc7c6)cc5c43)cc2C(F)(F)F)CC1", "values": [{"measurement": "% of control", "setting": "[15]", "result": 58, "unit": "%"}]}]}
